# Measured values as given in PMC10470178, “Long-acting lenacapavir protects macaques against intravenous challenge with simian-tropic HIV” (eBioMedicine, 2023).
# Test system: stHIV-A19
# Experiment: PrEP protection from high-dose intravenous stHIV-A19 challenge in pigtail macaques
# Type: in vivo, pigtail macaques (Macaca nemestrina)
# Description: Sixteen male, purpose-bred pigtail macaques (Macaca nemestrina; ages 4.6–8.5 years at the time of study initiation) were housed at NIH-Bethesda (Supplementary Table S1). All study animals received enrofloxacin (10 mg/kg, administered orally, once per day for 10 days), paromomycin (25 mg/kg, administered orally, twice daily for 7–10 days), and fenbendazole (50 mg/kg administered orally, once per day for 5 days) two weeks to 43 months prior to study initiation. Lenacapavir or drug vehicle (sterile, preservative-free 57.5% w/v polyethylene glycol 300 in water) doses were administered to sedated animals via SC injection into the scapular region such that no more than 2 ml of solution was injected into a single SC site. Animals in the LEN pharmacokinetic evaluation study (N = 6) each received two doses of LEN, both at 15 mg/kg (N = 3) or at 50 mg/kg (N = 3), 6 weeks apart. Animals in the virus challenge experiment each received a single dose of LEN at 25 mg/kg (N = 3, LEN PrEP group) or drug vehicle (N = 4, vehicle control group) 30 days prior to stHIV-A19 challenge, or a cART regimen consisting of tenofovir disoproxil fumarate (TDF), emtricitabine (FTC), and dolutegravir (DTG) (N = 3, TDF/FTC/DTG group), coformulated and administered as previously described[29]^,[30] for 7 days beginning 3 days prior to stHIV-A19 challenge (Supplementary Figure S1). Hair was clipped and skin marked at LEN and vehicle injection sites to allow for subsequent visual and manual assessment and scoring of potential ISRs by non-blinded veterinary care staff. Complete blood counts (CBC) and serum chemistries were monitored prior to and at 2- to 4-week intervals after LEN administration for at least one year. Following the first dose of LEN in the PK study, one animal in the 50-mg/kg dosing group received 7 consecutive days of daily ketoprofen (2 mg/kg) administered intramuscularly for ISR analgesia at veterinary discretion. For the second dose of LEN in the PK study, all animals in the 50-mg/kg dosing group received 5–7 consecutive days of twice daily oral carprofen (2 mg/kg) analgesia administered prophylactically starting on the day of LEN dosing. In the IV challenge PrEP study, all LEN and vehicle control animals received 3–5 consecutive days of twice daily oral carprofen (2 mg/kg) analgesia administered prophylactically starting on the day of injection. For virus challenge, PrEP study animals each received 1 × 10^5 infectious units of stHIV-A19 injected intravenously. After LEN washout, LEN PrEP group animals received a single 50-mg/kg dose of rhesusized depleting anti-CD8α antibody (MT807R1, RRID: AB_2716320, NIH Nonhuman Primate Reagent Resource), administered SC to anesthetized animals.
# Simian-tropic HIV was isolated from clarified PTM plasma by centrifugation (21,000×g for 1 h), and the resultant pellet was extracted as described.[31] Pigtail macaque PBMCs were subjected to nucleic acid extraction essentially as previously described for tissues.[32] HIV gag DNA and RNA copies were assessed using a multiplexed qPCR assay, as previously described.[33] Plasma stHIV-A19 vRNA levels are reported as copies/ml of plasma. PBMC-associated stHIV-A19 vDNA levels are reported as copies/10^6 cell equivalents, based on 2 copies of the CCR5 gene per diploid cellular genome.[34]
# Plasma specimens collected from all 10 virus challenge animals prior to and at 8 weeks after stHIV-A19 challenge were evaluated for the presence of antibodies specific for HIV-1 by Western blot analysis using the GS HIV-1 Western Blot kit (Bio-Rad, cat #32508) according to the manufacturer’s instructions.
# Statistical analyses were performed using R v4.1.1 ((R Core Team, 2021). R: A language and environment for statistical computing. R Foundation for Statistical Computing, Vienna, Austria. URL https://www.R-project.org/). […]
# [1] = all 3 LEN PrEP animals, 34 days of monitoring after anti-CD8α antibody at 419 days post-challenge
smiles,measurement,setting,value
"CC(C)(C#Cc1ccc(-c2ccc(Cl)c3c(NS(C)(=O)=O)nn(CC(F)(F)F)c23)c([C@H](Cc2cc(F)cc(F)c2)NC(=O)Cn2nc(C(F)(F)F)c3c2C(F)(F)[C@@H]2C[C@H]32)n1)S(C)(=O)=O [LEN, Lenacapavir]",PBMC vDNA following CD8 depletion,[1],6.2–11.0 vDNA copies/10^6 PBMC
same,plasma vRNA following CD8 depletion,[1],< 2.8 vRNA copies/ml plasma
same,cell-associated viral DNA (CA-vDNA) in PBMC after stHIV-A19 challenge,"all animals of the group, any time point",vDNA was not detected at any time point
same,plasma vRNA after stHIV-A19 challenge,"assay threshold 2.8 vRNA copies/ml, LEN ∼370 days follow-up, TDF/FTC/DTG through 120 days post-challenge",no plasma vRNA detected at any time point
same,infection rates compared with vehicle control group,"each p < 0.03, Fisher's exact test",significantly lower than in the vehicle control group
same,HIV-1 Western blot serology,"plasma, 8 weeks after stHIV-A19 challenge, all animals",remained seronegative
same,protection from infection after stHIV-A19 challenge,"single IV challenge 1 × 10^5 i.u., LEN 25 mg/kg SC 30 days before (N = 3), 3-drug regimen daily SC for 7 days from 3 days before (N = 3)",protected PTMs from infection
